Laboratory results taken from the supplement of paper PMC9663587.

What was measured:
[1] = compound: CCCCOc1c(C(=O)c2c(F)cc(C)cc2F)c[nH]c2nncc1-2
Luminespib/NVP-AUY922 = compound: CCNC(=O)c1noc(-c2cc(C(C)C)c(O)cc2O)c1-c1ccc(CN2CCOCC2)cc1 [Luminespib/NVP-AUY922]
THZ-P1-2 = compound: CN(C)C/C=C/C(=O)NC1=CC=C(C=C1)C(=O)NC2=CC=CC(=C2)NC3=NC=NC(=C3)C4=CNC5=CC=CC=C54 [THZ-P1-2]
BSJ-01-175 = compound: CN(C)C/C=C/C(=O)Nc1ccc(O[C@@H]2CCC[C@@H](Nc3ncc(Cl)c(-c4c[nH]c5ccccc45)n3)C2)cc1 [BSJ-01-175]
Saracatinib/AZD0530 = compound: CN1CCN(CCOc2cc(OC3CCOCC3)c3c(Nc4c(Cl)ccc5c4OCO5)ncnc3c2)CC1 [Saracatinib/AZD0530]
Ceritinib/LDK378 = compound: Cc1cc(Nc2ncc(Cl)c(Nc3ccccc3S(=O)(=O)C(C)C)n2)c(OC(C)C)cc1C1CCNCC1 [Ceritinib/LDK378]
YKL-5-124 = compound: C=CC(=O)Nc1ccc(C(=O)Nc2[nH]nc3c2CN(C(=O)N[C@H](CN(C)C)c2ccccc2)C3(C)C)cc1 [YKL-5-124]; assay: increase in dead-cell fraction, 72 h; higher = more death;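 further: breast cancer cell lines in 384-well plates, stained with Hoechst plus LIVE/DEAD far red dye and imaged, cells above an LDR intensity threshold counted dead, Hoechst-negative corpses included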
BSJ-03-123 = compound: CC(=O)c1c(C)c2cnc(Nc3ccc(N4CCN(CCOCCOCCOCCNC(=O)COc5cccc6c5C(=O)N(C5CCC(=O)NC5=O)C6=O)CC4)cn3)nc2n(C2CCCC2)c1=O [BSJ-03-123]; assay: as above
[2] = compound: CC(=O)c1c(C)c2cnc(Nc3ccc(N4CCNCC4)cn3)nc2n(C2CCCC2)c1=O; assay: as above
[3] = compound: CCN1CCN(Cc2ccc(Nc3ncc(F)c(-c4cc(F)c5nc(C)n(C(C)C)c5c4)n3)nc2)CC1; assay: as above
Neratinib/HKI272 = compound: CCOc1cc2ncc(C#N)c(Nc3ccc(OCc4ccccn4)c(Cl)c3)c2cc1NC(=O)/C=C/CN(C)C [Neratinib/HKI272]; assay: as above
[4] = compound: CCc1cnn2c(NCc3ccc[n+]([O-])c3)cc(N3CCCC[C@H]3CCO)nc12; assay: as above
LEE011/Ribociclib = compound: CN(C)C(=O)c1cc2cnc(Nc3ccc(N4CCNCC4)cn3)nc2n1C1CCCC1 [LEE011/Ribociclib]; assay: as above
THZ531 = compound: CN(C)C/C=C/C(=O)Nc1ccc(C(=O)N2CCC[C@@H](Nc3ncc(Cl)c(-c4c[nH]c5ccccc45)n3)C2)cc1 [THZ531]; assay: as above
THZ1 = compound: CN(C)C/C=C/C(=O)Nc1ccc(C(=O)Nc2cccc(Nc3ncc(Cl)c(-c4c[nH]c5ccccc45)n3)c2)cc1 [THZ1]; assay: as above
Flavopiridol = compound: CN1CC[C@H](c2c(O)cc(O)c3c(=O)cc(-c4ccccc4Cl)oc23)[C@H](O)C1 [Flavopiridol]; assay: as above
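Wherever GR50, 72 h is given: breast cancer and non-malignant breast epithelial cell lines, Deep Dye Drop or Dye Drop imaging, nine half-log doses, GR normalized to time-zero plates and DMSO-only controls.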

EFM19
GR50, 72 h [1]: 0.119 µM | GR50, 72 h (Luminespib/NVP-AUY922): 0.021 µM | GR50, 72 h (THZ-P1-2): 6.33 µM | GR50, 72 h (BSJ-01-175): 1.51 µM | GR50, 72 h (Saracatinib/AZD0530): 3.5 µM | GR50, 72 h (Ceritinib/LDK378): 5.52 µM | increase in dead-cell fraction (YKL-5-124; 0.001 µM): 0.0076 | increase in dead-cell fraction (YKL-5-124; 0.003162 µM): 0.0133 | increase in dead-cell fraction (YKL-5-124; 0.01 µM): 0.0465 | increase in dead-cell fraction (YKL-5-124; 0.03162 µM): 0.0193 | increase in dead-cell fraction (YKL-5-124; 0.1 µM): 0.0243 | increase in dead-cell fraction (YKL-5-124; 0.3162 µM): 0.0368 | increase in dead-cell fraction (YKL-5-124; 1 µM): 0.0396 | increase in dead-cell fraction (YKL-5-124; 3.162 µM): 0.0167 | increase in dead-cell fraction (YKL-5-124; 10 µM): 0.0439 | increase in dead-cell fraction (BSJ-03-123; 0.001 µM): -0.0051 | increase in dead-cell fraction (BSJ-03-123; 0.003162 µM): -0.0117 | increase in dead-cell fraction (BSJ-03-123; 0.01 µM): 0.001 | increase in dead-cell fraction (BSJ-03-123; 0.03162 µM): 0.0013 | increase in dead-cell fraction (BSJ-03-123; 0.1 µM): -0.0048 | increase in dead-cell fraction (BSJ-03-123; 0.3162 µM): -0.0048 | increase in dead-cell fraction (BSJ-03-123; 1 µM): 0.009 | increase in dead-cell fraction (BSJ-03-123; 3.162 µM): 0.0049 | increase in dead-cell fraction (BSJ-03-123; 10 µM): 0.0309 | increase in dead-cell fraction ([2]; 0.0003162 µM): -0.0086 | increase in dead-cell fraction ([2]; 0.001 µM): -0.0086 | increase in dead-cell fraction ([2]; 0.003162 µM): -0.0036 | increase in dead-cell fraction ([2]; 0.01 µM): -0.0059 | increase in dead-cell fraction ([2]; 0.03162 µM): -0.0024 | increase in dead-cell fraction ([2]; 0.1 µM): -0.0087 | increase in dead-cell fraction ([2]; 0.3162 µM): 0.0108 | increase in dead-cell fraction ([2]; 1 µM): 0.0355 | increase in dead-cell fraction ([2]; 3.162 µM): 0.0448 | increase in dead-cell fraction ([3]; 0.001 µM): -0.0101 | increase in dead-cell fraction ([3]; 0.003162 µM): -0.0007 | increase in dead-cell fraction ([3]; 0.01 µM): 0.0035 | increase in dead-cell fraction ([3]; 0.03162 µM): 0.0136 | increase in dead-cell fraction ([3]; 0.1 µM): 0.0179 | increase in dead-cell fraction ([3]; 0.3162 µM): 0.0249 | increase in dead-cell fraction ([3]; 1 µM): 0.0149 | increase in dead-cell fraction ([3]; 3.162 µM): 0.0183 | increase in dead-cell fraction ([3]; 10 µM): 0.0445 | increase in dead-cell fraction (Neratinib/HKI272; 0.0003162 µM): -0.0049 | increase in dead-cell fraction (Neratinib/HKI272; 0.001 µM): -0.0044 | increase in dead-cell fraction (Neratinib/HKI272; 0.003162 µM): -0.0012 | increase in dead-cell fraction (Neratinib/HKI272; 0.01 µM): -0.0052 | increase in dead-cell fraction (Neratinib/HKI272; 0.03162 µM): -0.0028 | increase in dead-cell fraction (Neratinib/HKI272; 0.1 µM): -0.0038 | increase in dead-cell fraction (Neratinib/HKI272; 0.3162 µM): -0.0011 | increase in dead-cell fraction (Neratinib/HKI272; 1 µM): -0.0033 | increase in dead-cell fraction (Neratinib/HKI272; 3.162 µM): 0.0028 | increase in dead-cell fraction ([4]; 0.0001 µM): -0.0077 | increase in dead-cell fraction ([4]; 0.0003162 µM): -0.0011 | increase in dead-cell fraction ([4]; 0.001 µM): -0.006 | increase in dead-cell fraction ([4]; 0.003162 µM): -0.0052 | increase in dead-cell fraction ([4]; 0.01 µM): -0.0076 | increase in dead-cell fraction ([4]; 0.03162 µM): 0.0197 | increase in dead-cell fraction ([4]; 0.1 µM): 0.148 | increase in dead-cell fraction ([4]; 0.3162 µM): 0.323 | increase in dead-cell fraction ([4]; 1 µM): 0.478 | increase in dead-cell fraction (LEE011/Ribociclib; 0.001 µM): -0.0027 | increase in dead-cell fraction (LEE011/Ribociclib; 0.003162 µM): -0.0038 | increase in dead-cell fraction (LEE011/Ribociclib; 0.01 µM): -0.0001 | increase in dead-cell fraction (LEE011/Ribociclib; 0.03162 µM): -0.0005 | increase in dead-cell fraction (LEE011/Ribociclib; 0.1 µM): 0.0163 | increase in dead-cell fraction (LEE011/Ribociclib; 0.3162 µM): 0.0047 | increase in dead-cell fraction (LEE011/Ribociclib; 1 µM): 0.0042 | increase in dead-cell fraction (LEE011/Ribociclib; 3.162 µM): 0.0248 | increase in dead-cell fraction (LEE011/Ribociclib; 10 µM): 0.0149 | increase in dead-cell fraction (THZ531; 0.0001 µM): -0.0038 | increase in dead-cell fraction (THZ531; 0.0003162 µM): -0.0067 | increase in dead-cell fraction (THZ531; 0.001 µM): -0.005 | increase in dead-cell fraction (THZ531; 0.003162 µM): -0.0057 | increase in dead-cell fraction (THZ531; 0.01 µM): -0.0007 | increase in dead-cell fraction (THZ531; 0.03162 µM): 0.0062 | increase in dead-cell fraction (THZ531; 0.1 µM): 0.0006 | increase in dead-cell fraction (THZ531; 0.3162 µM): -0.0035 | increase in dead-cell fraction (THZ531; 1 µM): 0.527 | increase in dead-cell fraction (THZ1; 0.0001 µM): -0.004 | increase in dead-cell fraction (THZ1; 0.0003162 µM): -0.0048 | increase in dead-cell fraction (THZ1; 0.001 µM): -0.0107 | increase in dead-cell fraction (THZ1; 0.003162 µM): -0.0093 | increase in dead-cell fraction (THZ1; 0.01 µM): -0.0068 | increase in dead-cell fraction (THZ1; 0.03162 µM): -0.0102 | increase in dead-cell fraction (THZ1; 0.1 µM): -0.002 | increase in dead-cell fraction (THZ1; 0.3162 µM): 0.0031 | increase in dead-cell fraction (THZ1; 1 µM): 0.215 | increase in dead-cell fraction (Flavopiridol; 0.0001 µM): -0.0095 | increase in dead-cell fraction (Flavopiridol; 0.0003162 µM): -0.003 | increase in dead-cell fraction (Flavopiridol; 0.001 µM): -0.0007 | increase in dead-cell fraction (Flavopiridol; 0.003162 µM): 0.0016 | increase in dead-cell fraction (Flavopiridol; 0.01 µM): 0.0002 | increase in dead-cell fraction (Flavopiridol; 0.03162 µM): -0.0106 | increase in dead-cell fraction (Flavopiridol; 0.1 µM): -0.0044 | increase in dead-cell fraction (Flavopiridol; 0.3162 µM): 0.0118 | increase in dead-cell fraction (Flavopiridol; 1 µM): 0.223
